Values of other authors, collected in PMC6952392, “A combined computational and experimental strategy identifies mutations conferring resistance to drugs targeting the BCR-ABL fusion protein” (Communications Biology, 2020).
Where two headings read alike, the source gives them in different places.

How the values were obtained:
[1] = safety window

In the case of `Cc1ccc(C(=O)Nc2ccc(CN3CCN(C)CC3)c(C(F)(F)F)c2)cc1C#Cc1cnc2cccnn12` [ponatinib], the “in vitro inhibitory activity” value (BCR-ABL; general statement, no reference given) is given as “sub-nanomolar range”.
For `COc1cc(Nc2c(C#N)cnc3cc(OCCCN4CCN(C)CC4)c(OC)cc23)c(Cl)cc1Cl` [bosutinib], the “in vitro inhibitory activity” value (BCR-ABL) is listed as “sub-nanomolar range”.
For `Cc1cn(-c2cc(NC(=O)c3ccc(C)c(Nc4nccc(-c5cccnc5)n4)c3)cc(C(F)(F)F)c2)cn1` [nilotinib], the “effective safe plasma concentration” value [1] is given as under 1500 ng/mL.
